Tests used:
[1] = system: HeLa-EGFP-182TAG reporter cells; test: Fluorescence confocal microscopy of reporter cells; type: cell-based; settings: in the presence of FSY
Method: FSY incorporation into proteins in mammalian cells was tested. HeLa-EGFP-182TAG reporter cells were transfected with plasmid pMP-FSYRS-3×tRNA, which expresses FSYRS and tRNA^Pyl genes. Wang et al, Nat. Neurosci., 10:1063-1072 (2007). Suppression of the 182TAG codon would produce full-length EGFP rendering cells fluorescent. After transfection, cells were incubated with FSY of various concentrations at 37° C. for 24 or 48 h followed by flow cytometry. […] The fluorescence intensity increased with FSY concentration and incubation time (FIG. 2B, FIG. 7). As a positive control, p-azido-L-phenylalanine (AzF) was incorporated into reporter cells in parallel using plasmid pIre-Azi3, which is the most efficient Uaa incorporation system in mammalian cells in our hands. Coin et al, Cell, 155:1258-1269 (2013). FSY incorporation compared favorably with AzF, reaching 76% of the AzF level. […] Chen et al, J. Am. Chem. Soc., 138:7353-7364 (2016). […] No fluorescence signal was detected when FSY was not added.
Fluorescence confocal microscopy of HeLa-EGFP-182TAG reporter cells: One day before transfection, 4.5×10^4 HeLa-EGFP-182TAG cells were seeded in a Greiner bio-one CELLview glass bottom dish containing 500 μL of DMEM media with 10% FBS, and incubated at 37° C. in a CO2 incubator. […]

293T cells = test: Cell viability assay with various concentrations of FSY; type: cell-based
[2] = system: HeLa-EGFP-182TAG reporter cells; test: FACS analysis of Uaa incorporation into EGFP-182TAG reporter cells; type: cell-based
Method: FSY incorporation into proteins in mammalian cells was tested. HeLa-EGFP-182TAG reporter cells were transfected with plasmid pMP-FSYRS-3×tRNA, which expresses FSYRS and tRNA^Pyl genes. Wang et al, Nat. Neurosci., 10:1063-1072 (2007). Suppression of the 182TAG codon would produce full-length EGFP rendering cells fluorescent. After transfection, cells were incubated with FSY of various concentrations at 37° C. for 24 or 48 h followed by flow cytometry. […] The fluorescence intensity increased with FSY concentration and incubation time (FIG. 2B, FIG. 7). As a positive control, p-azido-L-phenylalanine (AzF) was incorporated into reporter cells in parallel using plasmid pIre-Azi3, which is the most efficient Uaa incorporation system in mammalian cells in our hands. Coin et al, Cell, 155:1258-1269 (2013). […] No fluorescence signal was detected when FSY was not added.
FACS analysis of Uaa incorporation into HeLa-GFP-182TAG reporter cells: One day before transfection, 4.5×10^4 HeLa-EGFP-182TAG reporter cells (Wang et al, Nat. Neurosci., 10:1063-1072 (2007)) were seeded in a Greiner bio-one 24 well-cell culture dish containing 500 μL of DMEM media with 10% FBS, and incubated at 37° C. in a CO2 incubator. […] The cells were resuspended in 300 μL of FACS buffer (1×PBS, 2% FBS, 1 mM EDTA, 0.1% sodium azide, […]) and analyzed by BD LSRFortessa™ cell analyzer.

E. coli DH10B cells = test: Growth curve of E. coli DH10B cells in the presence or absence of FSY; type: cell-based; settings: 1 mM FSY, 37° C.
Method: FIG. 6 provides a growth curve of E. coli DH10B cells at 37° C. in the presence or absence of 1 mM FSY. The experiments were repeated for three times.
The incorporation specificity of FSY into proteins in E. coli was evaluated. The Zspa affibody (Afb) gene containing a TAG codon at position 36 (Afb-36TAG) was co-expressed with the tRNA^Pyl/FSYRS pair in E. coli. In the absence of FSY, no full-length Afb was detected; when 1 mM FSY was added in growth media, full-length Afb36FSY was produced with a yield of 1.6 mg/L (FIG. 1C). The purified Afb36FSY was analyzed by electrospray ionization time-of-flight mass spectrometry (ESI-TOF MS) (FIG. 1D). A peak observed at 7855.96 Da corresponds to intact Afb containing FSY at site 36 (Afb36FSY: expected 7856.69 Da). A peak measured at 7724.77 Da corresponds to Afb36FSY lacking the initiating Met (Afb36FSY-Met: expected 7725.50 Da). […] FSY was also incorporated at position 24 of the Z protein and analyzed with tandem MS.

[3] = system: HeLa-EGFP-182TAG reporter cells; test: Cell viability assay with various concentrations of FSY; type: cell-based
[4] = target: T1, extracellular domain of the hGH receptor (Homo sapiens, UniProt P10912); test: Covalent crosslinking of hGH with the extracellular domain of hGH receptor (Western blot); type: binding; settings: PBS buffer, different durations of time, Western blot anti-Hisx6
T1 construct: incubated with the extracellular domain of the hGH receptor
T1 sequence (P10912 19-264): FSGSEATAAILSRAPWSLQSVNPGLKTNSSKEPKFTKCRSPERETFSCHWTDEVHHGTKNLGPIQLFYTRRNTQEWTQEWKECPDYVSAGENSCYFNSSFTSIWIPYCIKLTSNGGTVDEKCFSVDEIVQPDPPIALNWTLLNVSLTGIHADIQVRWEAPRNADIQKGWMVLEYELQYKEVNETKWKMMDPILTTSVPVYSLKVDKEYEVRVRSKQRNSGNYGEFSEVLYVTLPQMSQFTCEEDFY

[5] = system: STAT5 phosphorylation in BAF3 cells, a cell line with hGH receptor expression; test: pSTAT5 production in BAF3 cells upon stimulation by hGH (Western blot); type: cell-based; settings: Western blot of cell lysates
From the text: It was also examined whether FSY incorporation into hGH would affect its biological activity. Upon hGH binding with its receptor, STAT5 is phosphorylated as a downstream signal via the JAK/STAT pathway, leading to transcription of genes important for cell immunity, proliferation, and apoptosis (Waters, M J. et al. Clin. Exp. Pharmacol. Physiol. 1999, 10760-764). The inventors stimulated BAF3 cells, a cell line with hGH receptor expression, with hGH(WT) and hGH(FSY), and then probed pSTAT5 expression using Western blot analysis of cell lysates.

| Compound | cell morphology [1] | toxicity to 293T cells (293T cells) | FSY incorporation relative to the AzF level ([2]; EGFP-182TAG suppression in HeLa reporter cells, AzF as positive control) [%] | EGFP fluorescence by flow cytometry ([2]; cells transfected with pMP-FSYRS-3×tRNA, FSY at 37° C. for 24 or 48 h) | E. coli growth (cytotoxicity) (E. coli DH10B cells) | toxicity to HeLa cells [3] | covalent crosslinking with the hGH receptor (band at ~50 kD) [4] | stimulation of STAT5 phosphorylation [5] |
| --- | --- | --- | --- | --- | --- | --- | --- | --- |
| N[C@@H](Cc1ccc(OS(=O)(=O)F)cc1)C(=O)O [FSY, fluorosulfate-L-tyrosine] | remained normal | no obvious toxicity | 76 | Strong EGFP fluorescence | did not affect E. coli growth | no obvious toxicity | – | – |
| hGH(FSY): Human growth hormone with FSY genetically incorporated at site 68 | – | – | – | – | – | – | covalently crosslinked | the same effect of stimulating STAT5 phosphorylation as the hGH(WT) |

From US20250084121A1, “BIOREACTIVE COMPOSITIONS AND METHODS OF USE THEREOF” (The Regents of the University of California, priority 2018, published 2025)
